Experimental data as given in the NIST ThermoML archive (doi:10.1016/j.fluid.2005.08.021).
Numbers after ± are expanded uncertainties.

conditions: Crystal; visual observation

SMILES	Normal melting temperature [°C]
Oc1ccc(Cl)cc1 [4-chlorophenol]	42.5 ± 0.4
Oc1cccc(Cl)c1 [3-chlorophenol]	32.4 ± 0.4
CC(C)(C)O [2-methylpropan-2-ol]	25.6 ± 0.4
